# Experimental data taken from patent publication US20250161408A1, “PEPTIDIC INHIBITORS OF AMYLOID SELF- AND CROSS-ASSEMBLY” (TECHNISCHE UNIVERSITÄT MÜNCHEN, priority 2022, published 2025).
# Entries after “also recorded” stand apart in the source; their conditions may differ. Non-standard residues stand in square brackets, D forms with d. Residues, ends and D or L forms follow the SMILES beside them. No end group written: not given here. NMeF = CN[C@@H](Cc1ccccc1)C(=O)O; NMeL = CN[C@@H](CC(C)C)C(=O)O; NMeV = CN[C@H](C(=O)O)C(C)C; Nle = CCCC[C@H](N)C(=O)O
# Columns and labels:
# IAPP = target: T1, IAPP (Homo sapiens, UniProt P10997); test: MTT reduction assay of IAPP-mediated cell damage in RIN5fm cells; assay type: cell-based; conditions: for Effect on formation of cytotoxic IAPP assemblies (MTT reduction): aged (24 h or 7 days) IAPP/peptide 1/2 solutions; for IC50: read-out: IC50 (±SD) of inhibitory effects of ACMs on IAPP-mediated cell damage
# T1 construct: made in house; host or cells: chemical synthesis (Fmoc-SPPS), air-oxidised, RP-HPLC purified
# T1 sequence (P10997 34-70 limits assumed): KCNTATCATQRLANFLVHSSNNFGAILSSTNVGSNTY
# Experimental: Briefly, cells were cultivated and platted in 96-well plates. Aliquots of solutions used for the ThT binding assays (see “ThT binding assays”) were diluted with cell medium at the indicated incubation time points (24 h or 7 days) and added to the cells at the indicated final concentrations. Following incubation with the cells for ˜20 h (37° C., humidified atmosphere, 5% CO2) cell damage was assessed by measuring cellular MTI reduction. IC50 values were determined.
# Aβ42 [1] = target: T2, Aβ42 (Homo sapiens, UniProt P05067); test: cell-based; conditions: read-out: IC50 (±SD) of inhibitory effects of ACMs on Aβ42-mediated cell damage
# T2 construct: the 40(42)-residue peptide Aβ40(42); made in house; host or cells: chemical synthesis (Fmoc-SPPS), monomer isolated by SEC
# Experimental: Following incubation with the cells for ˜20 h (37° C., humidified atmosphere, 5% CO2), cell damage was assessed by measuring cellular MTT reduction.
# Solutions were aged for 1.5 h (37° C., shaking 500 rpm). Aliquots were diluted with cell medium, incubated with PC12 cells at the indicated final concentrations for ˜20 h and cellular MTT reduction was measured as above.
# [2] = system: Aβ42-mediated LTP impairment; test: Hippocampal long-term potentiation (LTP) measurements in murine hippocampal slices ex vivo; design: species or system mouse; conditions: Aβ42 oligomers 50 nM, 24 h aged, 30° C.; oligomers/ACM 1/10
# Experimental: LTP measurements were performed. Briefly, sagittal hippocampal slices (350 μm) were obtained from C57BL/6N male mice (6-8 weeks) in ice-cold Ringer solution bubbled with a mixture of 95% O2 and 5% CO2 and according to protocols approved by the ethical committee on animal care and use of the government of Bavaria Germany. Extracellular recordings were performed using artificial cerebrospinal fluid (ACSF)-filled glass microelectrodes (2-3 MW) at RT. […] Field excitatory postsynaptic potentials (fEPSPs) were evoked in the hippocampal CA1 dendritic region via two independent inputs by stimulating the Schaffer collateral commissural pathway (Scep). For LTP induction, high-frequency stimulation (HFS; 100 Hz/100 pulses) conditioning pulses were delivered to the same Seep inputs. Both stimulating electrodes were used to utilize the input specificity of LTP, thus allowing for the measurement of an internal control within the same slice. […] Responses were measured for 60 min after HFS. […] Data analysis by 1-way ANOVA and Bonferroni's multiple comparison test.
# [3] = system: cultured murine BV2 microglia; test: Phagocytosis of Aβ42 species with or without ACM; assay type: cell-based, mouse; conditions: 1/1, co-incubation 2 h
# Experimental: Briefly, BV2 cells were maintained in GlutaMAX-supplemented RPMI1640 medium containing 10% FBS and 1% penicillin/streptomycin on poly-L-ornithine-coated flasks. For the phagocytosis assay, BV2 cells were seeded into 24-well plates containing coverslips in serum-free RPMI1640-GlutaMAX and further incubated for 24 h (5% CO2, 37° C.) to reach 10000 cells/well. Primary BMDMs were obtained from bone-marrow monocytes isolated from wildtype C57BL/6 mice, plated in 24-well plates at a density of 10000cells/well, and differentiated with L929 cell-conditioned medium (RPMI1640, 10% FBS, 1% penicillin/streptomycin) for 7 days. Thereafter, cells were incubated with aged peptide solutions at 37° C. for 6 h. […]
# Following incubation of the cells with the peptides, supernatants were removed and cells on the coverslips were washed 5 times with ice-cold 1×PBS, fixed with 4% paraformaldehyde, washed with 1×PBS, permeabilized with 0.2% Triton-X 100, and rinsed three times with cold 1×PBS. […] Images were acquired using a Leica DMi8 fluorescence microscope. The percentage of cells that had taken up peptides was calculated by dividing the number of BV2 cells or BMDMs that phagocytosed TAMRA-labeled peptide by the total cell count, multiplied by 100. Significance was analyzed by unpaired student's t-test.
# Aβ42 [4] = target: T2, Aβ42; test: ThT binding assay of Aβ42 fibrillogenesis (self-assembly, seeding, cross-seeding); assay type: biochemical; conditions: Aβ42 5 μM, Aβ42/peptide 1/1
# Experimental: Aβ42 fibrillogenesis-related studies. […] Peptide incubations were performed in the presence of ThT in 96-well black MTPs (FluoroNunc, Thermo Fisher Scientific). […] Values of seeds or buffer alone were subtracted from the data in self-/cross-seeding assays; all other data shown are raw data except for data in FIG. 27b which were normalized).
# Incubations (37° C.) and determination of ThT fluorescence were performed as for all other Aβ42-related studies.
Molecule,Effect on formation of cytotoxic IAPP assemblies (MTT reduction) (IAPP; RIN5fm cells),IC50 (IAPP) [µM],IC50 (Aβ42 [1]) [µM],Effect on LTP impairment mediated by preformed Aβ42 oligomers [2],Effect of addition to TAMRA-oAβ42 on Aβ42 phagocytosis [3],Effect on Aβ42 fibrillogenesis / amyloid self-assembly (ThT binding) (Aβ42 [4]),"Effect of addition to preformed fIAPP on fIAPP cytotoxicity (MTT reduction) (IAPP; RIN5fm cells, ACM 33 μM added to fIAPP […], 1 day, fIAPP 500 nM)"
CCCC[C@H](NC(=O)[C@H](CC(C)C)NC(=O)CNC(=O)[C@@H](NC(=O)[C@@H](NC(=O)[C@H](C)NC(=O)CNC(=O)[C@H](CCCCN)NC(=O)[C@H](CC(N)=O)NC(=O)[C@H](Cc1ccccc1)NC(=O)[C@H](Cc1ccccc1)NC(=O)[C@H](Cc1ccccc1)NC(=O)[C@H](CC(=O)O)NC(=O)[C@H](CCC(=O)O)NC(=O)[C@H](C)NC(=O)[C@H](Cc1ccccc1)NC(=O)[C@H](Cc1ccccc1)N(C)C(=O)[C@@H](NC(=O)[C@H](CC(C)C)N(C)C(=O)[C@H](CCCCN)NC(=O)[C@@H](N)CCC(N)=O)C(C)C)[C@@H](C)CC)[C@@H](C)CC)C(=O)N[C@H](C(=O)NCC(=O)NCC(=O)N[C@H](C(=O)N[C@H](C(=O)O)C(C)C)C(C)C)C(C)C [F3-LF] (H-QK[NMeL]V[NMeF]FAEDFFFNKGAIIGL[Nle]VGGVV-OH),fully suppressed; also recorded: suppress formation of toxic IAPP assemblies,0.0417,0.262,suppress LTP impairment mediated by preformed Aβ42 oligomers,,,
CCCC[C@H](NC(=O)[C@H](CC(C)C)NC(=O)CNC(=O)[C@@H](NC(=O)[C@@H](NC(=O)[C@H](C)NC(=O)CNC(=O)[C@H](CCCCN)NC(=O)[C@H](CC(N)=O)NC(=O)[C@H](CC(C)C)NC(=O)[C@H](CC(C)C)NC(=O)[C@H](CC(C)C)NC(=O)[C@H](CC(=O)O)NC(=O)[C@H](CCC(=O)O)NC(=O)[C@H](C)NC(=O)[C@H](Cc1ccccc1)N(C)C(=O)[C@H](Cc1ccccc1)NC(=O)[C@H](C(C)C)N(C)C(=O)[C@H](CC(C)C)NC(=O)[C@H](CCCCN)NC(=O)[C@@H](N)CCC(N)=O)[C@@H](C)CC)[C@@H](C)CC)C(=O)N[C@H](C(=O)NCC(=O)NCC(=O)N[C@H](C(=O)N[C@H](C(=O)O)C(C)C)C(C)C)C(C)C [L3-VF] (H-QKL[NMeV]F[NMeF]AEDLLLNKGAIIGL[Nle]VGGVV-OH),fully suppressed; also recorded: suppress formation of toxic IAPP assemblies,0.113,0.261,suppress LTP impairment mediated by preformed Aβ42 oligomers,increased Aβ42 phagocytosis,,
Nle3-LVFF: 4-fold N-methylated Nle3-VF analog; N-methylation of all four residues of segment LVFF (QK[NMeL][NMeV][NMeF][NMeF]AED[Nle][Nle][Nle]NKGAIIGL[Nle]VGGVV),,,,,,blocks amyloid self-assembly of Aβ42,
CCCC[C@H](NC(=O)[C@H](CC(C)C)NC(=O)CNC(=O)[C@@H](NC(=O)[C@@H](NC(=O)[C@H](C)NC(=O)CNC(=O)[C@H](CCCCN)NC(=O)[C@H](CC(N)=O)NC(=O)[C@H](CC(C)C)NC(=O)[C@H](CC(C)C)NC(=O)[C@H](CC(C)C)NC(=O)[C@H](CC(=O)O)NC(=O)[C@H](CCC(=O)O)NC(=O)[C@H](C)NC(=O)[C@H](Cc1ccccc1)NC(=O)[C@H](Cc1ccccc1)N(C)C(=O)[C@@H](NC(=O)[C@H](CC(C)C)N(C)C(=O)[C@H](CCCCN)NC(=O)[C@@H](N)CCC(N)=O)C(C)C)[C@@H](C)CC)[C@@H](C)CC)C(=O)N[C@H](C(=O)NCC(=O)NCC(=O)N[C@H](C(=O)N[C@H](C(=O)O)C(C)C)C(C)C)C(C)C [L3-LF] (H-QK[NMeL]V[NMeF]FAEDLLLNKGAIIGL[Nle]VGGVV-OH),fully suppressed; also recorded: suppress formation of toxic IAPP assemblies,0.133,,,,,
CCCC[C@H](NC(=O)[C@H](CC(C)C)NC(=O)CNC(=O)[C@@H](NC(=O)[C@@H](NC(=O)[C@H](C)NC(=O)CNC(=O)[C@H](CCCCN)NC(=O)[C@H](CC(N)=O)NC(=O)[C@H](Cc1ccccc1)NC(=O)[C@H](Cc1ccccc1)NC(=O)[C@H](Cc1ccccc1)NC(=O)[C@H](CC(=O)O)NC(=O)[C@H](CCC(=O)O)NC(=O)[C@H](C)NC(=O)[C@H](Cc1ccccc1)N(C)C(=O)[C@H](Cc1ccccc1)NC(=O)[C@H](C(C)C)N(C)C(=O)[C@H](CC(C)C)NC(=O)[C@H](CCCCN)NC(=O)[C@@H](N)CCC(N)=O)[C@@H](C)CC)[C@@H](C)CC)C(=O)N[C@H](C(=O)NCC(=O)NCC(=O)N[C@H](C(=O)N[C@H](C(=O)O)C(C)C)C(C)C)C(C)C [F3-VF] (H-QKL[NMeV]F[NMeF]AEDFFFNKGAIIGL[Nle]VGGVV-OH),fully suppressed; also recorded: suppress formation of toxic IAPP assemblies,0.0785,1.03,,,,does not affect fIAPP cytotoxicity
CCCC[C@H](NC(=O)[C@H](CC(=O)O)NC(=O)[C@H](CCC(=O)O)NC(=O)[C@H](C)NC(=O)[C@H](Cc1ccccc1)NC(=O)[C@H](Cc1ccccc1)N(C)C(=O)[C@@H](NC(=O)[C@H](CC(C)C)N(C)C(=O)[C@H](CCCCN)NC(=O)[C@@H](N)CCC(N)=O)C(C)C)C(=O)N[C@@H](CCCC)C(=O)N[C@@H](CCCC)C(=O)N[C@@H](CC(N)=O)C(=O)N[C@@H](CCCCN)C(=O)NCC(=O)N[C@@H](C)C(=O)N[C@H](C(=O)N[C@H](C(=O)NCC(=O)N[C@@H](CC(C)C)C(=O)N[C@@H](CCCC)C(=O)N[C@H](C(=O)NCC(=O)NCC(=O)N[C@H](C(=O)N[C@H](C(=O)O)C(C)C)C(C)C)C(C)C)[C@@H](C)CC)[C@@H](C)CC [Nle3-LF] (H-QK[NMeL]V[NMeF]FAED[Nle][Nle][Nle]NKGAIIGL[Nle]VGGVV-OH),fully suppressed; also recorded: suppress formation of toxic IAPP assemblies,0.0821,,,,,
